This is an account of results in ChEMBL document CHEMBL1145750, “Synthesis and biological evaluation of 2'-methyl taxoids derived from baccatin III and 14beta-OH-baccatin III 1,14-carbonate” (J Med Chem, 2003).

A short description of assay [1]: (§1) Potency differential in resistant to that of sensitive MCF7-R cell line. It counts as functional.
The subject of a further assay is MCF7. Nature of the assay: In vitro cytotoxicity against MCF-7 cell line. It counts as functional, cell-based. As to conditions: Homo sapiens.
Assay [2] in a line: Potency differential in resistant to that of sensitive A2780CIS cell line. It counts as functional.
Assay [3] in a line: Potency differential in resistant to that of sensitive A2780ADR cell line. It counts as functional, A2780 ADR.
Assay [4] deals with A2780. Nature of the assay: In vitro cytotoxicity against A2780TAX cell line. The note with it: Homo sapiens.
Assay [5] concerns MCF7R. In words: In vitro cytotoxicity against MCF7-R cell line. It counts as functional, cell-based. As to conditions: Homo sapiens.
For assay [6], the system named is A2780. Nature of the assay: In vitro cytotoxicity against A2780CIS cell line. The note with it: Homo sapiens.
The nature of assay [7]: Potency differential in resistant to that of sensitive A2780TAX cell line. It counts as functional.
The test system of assay [8] is A2780. Nature of the assay: In vitro cytotoxicity against A2780ADR cell line. The note with it: Homo sapiens.
The subject of assay [9] is A2780. In words: In vitro cytotoxicity against A2780 cell line. As to conditions: Homo sapiens.
Assay [10] concerns MCF7R. The assay is described as §1. As to conditions: Homo sapiens. It counts as functional, cell-based.

One may read the IC50 as the midpoint of a concentration-inhibition curve. Higher therefore signals weaker potency in that assay. Take `CC(=O)O[C@H]1C(=O)[C@@]2(C)[C@H]([C@H](OC(=O)c3ccccc3)[C@]34OC(=O)O[C@H]3[C@H](OC(=O)[C@](C)(O)[C@@H](NC(=O)OC(C)(C)C)c3ccco3)C(C)=C1C4(C)C)[C@]1(OC(C)=O)CO[C@@H]1C[C@@H]2O`: the Ratio is given as 9.4 in assay [1], 0.4 in assay [2], 4 in [3] and 5 in assay [7]. For the same compound, the half-maximal inhibitory concentration (IC50) in the assay on MCF7 worked out at 1.7 nM; with A2780 [4] it was 30.9 nM; in the assay with MCF7R [5], 16 nM; with A2780 [6] it was 2.5 nM; in the assay with A2780 [8] it was 27.1 nM; in the assay with A2780 [9], 5.9 nM.

For `CC(=O)O[C@H]1C(=O)[C@@]2(C)[C@H]([C@H](OC(=O)c3ccccc3)[C@]34OC(=O)O[C@H]3[C@H](OC(=O)[C@](C)(O)[C@@H](NC(=O)OC(C)(C)C)c3ccccc3)C(C)=C1C4(C)C)[C@]1(OC(C)=O)CO[C@@H]1C[C@@H]2O`, the Ratio was 0.7 in assay [2], 21 in assay [3] and 118 in [7]. Also, the IC50 in the assay with A2780 [4] came to 299 nM; in the assay with A2780 [6] it was 1.7 nM; in the assay on A2780 [8], 52.9 nM; in the assay with A2780 [9], 2.5 nM.

Turning to `CC(=O)O[C@H]1C(=O)[C@@]2(C)[C@H]([C@H](OC(=O)c3ccccc3)[C@]3(O)C[C@H](OC(=O)[C@](C)(O)[C@@H](NC(=O)c4ccccc4)c4ccco4)C(C)=C1C3(C)C)[C@]1(OC(C)=O)CO[C@@H]1C[C@@H]2O`, the figures for the Ratio in assay [2], in assay [3] and in [7] were 0.9, 20 and 135, respectively. Further, the IC50 in the assay on A2780 [4] was determined as 420 nM; in the assay on A2780 [6], 2.9 nM; with A2780 [8], 61.4 nM; in the assay on A2780 [9], 3.1 nM.

Regarding `CC(=O)O[C@H]1C(=O)[C@@]2(C)[C@H]([C@H](OC(=O)c3ccccc3)[C@]3(O)C[C@H](OC(=O)[C@](C)(O)[C@@H](NC(=O)OC(C)(C)C)c4ccco4)C(C)=C1C3(C)C)[C@]1(OC(C)=O)CO[C@@H]1C[C@@H]2O`, the Ratio in [2] was 1.1; in assay [3] it was 14; in assay [7], 107. Further, the IC50 in the assay with A2780 [4] was found to be 312 nM; in the assay on A2780 [6], 3.3 nM; with A2780 [8] it was 41.3 nM; in the assay with A2780 [9] it was 2.9 nM.

Turning to `CC(=O)O[C@H]1C(=O)[C@@]2(C)[C@H]([C@H](OC(=O)c3ccccc3)[C@]34OC(=O)O[C@H]3[C@H](OC(=O)[C@](C)(O)[C@@H](NC(=O)OC(C)(C)C)C(F)(F)F)C(C)=C1C4(C)C)[C@]1(OC(C)=O)CO[C@@H]1C[C@@H]2O`, the Ratio in assay [2] is on record as 0.6; in assay [3], 17; in assay [7], 61. Moreover, the IC50 stood at 285 nM in the assay with A2780 [4], 2.8 nM in the assay with A2780 [6], 79.3 nM with A2780 [8] and 4.6 nM with A2780 [9].

Consider `CC(=O)O[C@H]1C(=O)[C@@]2(C)[C@H]([C@H](OC(=O)c3ccccc3)[C@]34OC(=O)O[C@H]3[C@H](OC(=O)[C@H](O)[C@H](CC(C)C)NC(=O)OC(C)(C)C)C(C)=C1C4(C)C)[C@]1(OC(C)=O)CO[C@@H]1C[C@@H]2O` [ORTATAXEL], for which the IC50 with MCF7 was 1.1 nM; with A2780 [4] it was 56 nM; in the assay with MCF7R [5] it was 36 nM; with A2780 [6], 3.6 nM; in the assay with A2780 [8], 63 nM; in the assay with A2780 [9] it was 4.8 nM. Moreover, the Ratio in assay [2] was 0.7; in assay [3], 13; in assay [7] it was 12; in the assay on MCF7R [10] it was 33.
